Assay results taken from patent US20040192764A1 (H. Lundbeck A/S, priority 2001, published 2004).

Experiment: pharmacological and clinical studies (potency versus racemate, influence of R-citalopram)
Assay type: in vivo
Details: presence of R-citalopram
Excerpt: This may be shown in functional in-vivo pharmacological models and studies of 5-HT-reuptake effect and or in behaviour models, for example depression models.

In the case of CN(C)CCC[C@]1(c2ccc(F)cc2)OCc2cc(C#N)ccc21 [R-citalopram], the “influence on the effect of escitalopram” value is reported as “negative impact on the effect of escitalopram”.
